Type in all cases: biochemical
Experiment [1] concerns the target T1, PRMT6 (Homo sapiens, UniProt Q96LA8). Kind of experiment: selectivity of YD1113/YD1290 on PRMT panel, PRMT6. The procedure:
(§1) The selectivity of compounds YD1113 and YD1290 on PRMTs were performed by Reaction Biology Corp.
(§2) Next, the selectivity of YD1113 was investigated on a panel of PRMTs at 10 μM.
(§3) After validating the benzyl urea moiety as an unconventional homocysteine mimic of SAH for PRMTs, it was hypothesized that incorporating the benzyl urea moiety into the original pan PRMT inhibitor II757 would build a potent bisubstrate inhibitor. […] To enable a stable tri-substitution, the sulfur atom with a nitrogen atom was replaced. YD1290 was synthesized following the reported methods 9, 15 and tested in a radioactivity assay for PRMTs (FIG. 6b).

Experiment [2] concerns the target T2, PRMT1 (Homo sapiens, UniProt Q99873).
T2 construct: made in house
Kind of experiment: SAHH-coupled fluorescence assay, inhibition of PRMT1. In a few lines: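 PRMT1 (0.1 μM) was run with 10 μM AdoMet, 5 μM SAHH and 10 μM ThioGlo4 in 2.5 mM HEPES pH 7.0, 25 mM NaCl, 25 μM EDTA, 50 μM TCEP and 0.01% Triton X-100. Fluorescence (ex 400/em 465 nm) was monitored for 15 min. Assays were done in duplicate.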

For experiment [3], the system named is PRMT4. Kind of experiment: selectivity of YD1113/YD1290 on PRMT panel, PRMT4. The procedure:
as §1, §2, §3

In another experiment the test system is PRMT7. The experiment in a line: selectivity of YD1113 on PRMT panel, PRMT7. The procedure:
as §1, §2

In experiment [4] the target is T2, PRMT1. Kind of experiment: selectivity of YD1113/YD1290 on PRMT panel, PRMT1. As for the experimental part: as §1, §2, §3
Experiment [5] addresses T3, PRMT8 (Homo sapiens, UniProt Q9NR22). Kind of experiment: selectivity of YD1113/YD1290 on PRMT panel, PRMT8. As for the experimental part: as §1, §2, §3
Another experiment concerns the target PRMT5 (Homo sapiens, UniProt O14744). Kind of experiment: selectivity of YD1113 on PRMT panel, PRMT5. The note with it: read-out: IC50 (nM) | PRMT5. As for the experimental part: as §1, §2
The subject of experiment [6] is PRMT3. Kind of experiment: selectivity of YD1113/YD1290 on PRMT panel, PRMT3. The procedure: as §1, §2, §3
For experiment [7], the target named is T1, PRMT6. Kind of experiment: radioactive assay (Reaction Biology Corp.), inhibition of PRMT6. The note with it: for PRMT6 inhibition: 10 μM. The procedure:
(§4) Next, the inhibition activity of the library was investigated for five PRMT members from type I PRMTs.
(§5) The PRMT 4, 6 and 8 methylation assays were performed by Reaction Biology corp.

Experiment [8] concerns the target PRMT3 (Homo sapiens, UniProt O60678). Kind of experiment: SAHH-coupled fluorescence assay, inhibition of PRMT3. The arrangement: PRMT3 (residues 211-531) was cloned into the pET28a-MHL expression vector; tag of the pET28a-MHL vector (not described); made in house; host or cells: Escherichia coli BL21(DE3). In a few lines:
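Coupled SAHH/ThioGlo4 fluorescence read-out (ex 380 nm, em 505 nm) of PRMT3 (0.25 μM) methylation with 30 μM AdoMet and 5 μM SAHH. Buffer was 20 mM Tris pH 7.5 with 0.01% Triton X-100. Run in duplicate.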

Experiment [9] relates to PRMT3. The description is as above. The note with it: read-out: IC50 [µM] | PRMT3. The procedure: A fluorescence-based SAHH-coupled assay was applied to study the inhibition activity of all synthesized compounds on PRMT 1 and 3.
The PRMT3 methylation assay was performed under the following conditions in a final well volume of 100 μL: 20 mM Tris (pH=7.5), 0.01% Triton X-100, 5 μM SAHH, 0.25 μM PRMT3, 30 μM AdoMet, and 15 μM ThioGlo4. […] Fluorescence was monitored on a BMG CLARIOstar microplate reader with excitation 380 nm and emission 505 nm. Data were processed by using GraphPad Prism software 8.0. All experiments were performed in duplicate.
as §4
The PRMT3 methylation assay was performed under the following conditions in a final well volume of 100 μL: 20 mM Tris (pH=7.5), 0.01% Triton X-100, 5 μM SAHH, 0.25 μM PRMT3, 30 μM AdoMet, and 15 μM ThioGlo4. […] Fluorescence was monitored on a BMG CLARIOstar microplate reader with excitation 380 nm and emission 505 nm. Data were processed by using GraphPad Prism software 8.0.

In experiment [10] the target is T3, PRMT8. Kind of experiment: radioactive assay (Reaction Biology Corp.), inhibition of PRMT8. As for the experimental part:
as §4, §5

The target of experiment [11] is T4, PRMT4 (Homo sapiens, UniProt Q86X55).
T4 sequence (Q86X55 1-608): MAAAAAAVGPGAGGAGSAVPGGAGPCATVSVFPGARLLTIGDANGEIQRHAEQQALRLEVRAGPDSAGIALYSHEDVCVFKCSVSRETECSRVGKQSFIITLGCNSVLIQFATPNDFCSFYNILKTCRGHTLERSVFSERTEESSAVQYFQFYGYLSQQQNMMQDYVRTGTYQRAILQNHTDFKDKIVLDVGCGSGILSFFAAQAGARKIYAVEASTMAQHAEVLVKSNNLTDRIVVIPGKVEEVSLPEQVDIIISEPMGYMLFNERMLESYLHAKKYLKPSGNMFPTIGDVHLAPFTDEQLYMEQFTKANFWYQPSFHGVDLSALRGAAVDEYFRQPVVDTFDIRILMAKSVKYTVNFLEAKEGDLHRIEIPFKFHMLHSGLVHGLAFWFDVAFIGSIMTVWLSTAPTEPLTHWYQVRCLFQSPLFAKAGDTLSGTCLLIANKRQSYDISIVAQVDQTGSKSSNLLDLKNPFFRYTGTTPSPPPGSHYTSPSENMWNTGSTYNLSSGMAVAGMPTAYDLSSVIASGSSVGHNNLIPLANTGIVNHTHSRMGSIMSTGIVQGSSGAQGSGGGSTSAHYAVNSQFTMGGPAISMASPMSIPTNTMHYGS
Kind of experiment: radioactive assay (Reaction Biology Corp.), inhibition of PRMT4. As for the experimental part: as §4, §5

For experiment [12], the system named is PRMT4. Described as above. The procedure:
as §4, §5

T3 sequence (Q9NR22 whole entry, species assumed): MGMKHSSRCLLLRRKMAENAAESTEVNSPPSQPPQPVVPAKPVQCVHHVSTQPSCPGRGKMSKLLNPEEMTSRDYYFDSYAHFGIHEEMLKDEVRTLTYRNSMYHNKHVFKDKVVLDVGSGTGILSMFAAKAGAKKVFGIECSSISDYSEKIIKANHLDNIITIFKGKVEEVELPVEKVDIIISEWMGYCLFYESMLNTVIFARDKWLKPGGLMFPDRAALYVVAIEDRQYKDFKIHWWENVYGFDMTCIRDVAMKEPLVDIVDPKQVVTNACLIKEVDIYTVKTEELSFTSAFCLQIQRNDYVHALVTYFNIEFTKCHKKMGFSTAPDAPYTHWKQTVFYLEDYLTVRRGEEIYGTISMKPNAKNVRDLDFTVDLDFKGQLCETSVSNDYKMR
Sequence of PRMT3 (Homo sapiens, UniProt O60678) (O60678 211-531): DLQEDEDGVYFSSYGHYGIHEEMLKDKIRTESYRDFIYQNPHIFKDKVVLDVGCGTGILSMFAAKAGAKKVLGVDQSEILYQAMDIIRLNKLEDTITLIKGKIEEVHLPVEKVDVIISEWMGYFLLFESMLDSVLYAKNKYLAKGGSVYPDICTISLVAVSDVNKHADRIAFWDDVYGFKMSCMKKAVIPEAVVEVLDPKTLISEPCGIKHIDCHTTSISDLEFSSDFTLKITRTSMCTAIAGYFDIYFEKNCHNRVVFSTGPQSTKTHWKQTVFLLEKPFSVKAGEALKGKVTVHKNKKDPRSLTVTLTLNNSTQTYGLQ
T2 sequence (Q99873 whole entry, species assumed): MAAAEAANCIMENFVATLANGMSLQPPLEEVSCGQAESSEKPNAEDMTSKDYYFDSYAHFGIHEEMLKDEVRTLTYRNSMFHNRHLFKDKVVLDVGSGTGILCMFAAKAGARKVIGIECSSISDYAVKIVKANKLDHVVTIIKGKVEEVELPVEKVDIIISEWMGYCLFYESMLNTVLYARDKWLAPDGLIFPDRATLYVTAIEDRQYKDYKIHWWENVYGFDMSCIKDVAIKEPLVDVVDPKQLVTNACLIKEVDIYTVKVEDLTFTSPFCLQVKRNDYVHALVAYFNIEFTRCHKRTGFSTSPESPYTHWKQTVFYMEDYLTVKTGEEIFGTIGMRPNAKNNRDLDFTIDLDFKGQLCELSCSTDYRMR
T1 sequence (Q96LA8 whole entry, species assumed): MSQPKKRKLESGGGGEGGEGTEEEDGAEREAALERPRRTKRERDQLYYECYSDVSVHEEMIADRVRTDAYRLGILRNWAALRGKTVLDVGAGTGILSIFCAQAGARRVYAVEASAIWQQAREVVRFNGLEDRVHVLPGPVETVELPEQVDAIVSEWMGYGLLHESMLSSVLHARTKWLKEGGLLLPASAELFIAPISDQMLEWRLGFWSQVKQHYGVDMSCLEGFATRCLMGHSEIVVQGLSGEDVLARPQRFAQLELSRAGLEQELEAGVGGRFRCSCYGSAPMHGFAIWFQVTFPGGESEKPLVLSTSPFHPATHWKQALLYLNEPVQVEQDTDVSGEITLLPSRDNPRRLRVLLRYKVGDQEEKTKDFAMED
Sequence of PRMT5 (O14744 whole entry, species assumed): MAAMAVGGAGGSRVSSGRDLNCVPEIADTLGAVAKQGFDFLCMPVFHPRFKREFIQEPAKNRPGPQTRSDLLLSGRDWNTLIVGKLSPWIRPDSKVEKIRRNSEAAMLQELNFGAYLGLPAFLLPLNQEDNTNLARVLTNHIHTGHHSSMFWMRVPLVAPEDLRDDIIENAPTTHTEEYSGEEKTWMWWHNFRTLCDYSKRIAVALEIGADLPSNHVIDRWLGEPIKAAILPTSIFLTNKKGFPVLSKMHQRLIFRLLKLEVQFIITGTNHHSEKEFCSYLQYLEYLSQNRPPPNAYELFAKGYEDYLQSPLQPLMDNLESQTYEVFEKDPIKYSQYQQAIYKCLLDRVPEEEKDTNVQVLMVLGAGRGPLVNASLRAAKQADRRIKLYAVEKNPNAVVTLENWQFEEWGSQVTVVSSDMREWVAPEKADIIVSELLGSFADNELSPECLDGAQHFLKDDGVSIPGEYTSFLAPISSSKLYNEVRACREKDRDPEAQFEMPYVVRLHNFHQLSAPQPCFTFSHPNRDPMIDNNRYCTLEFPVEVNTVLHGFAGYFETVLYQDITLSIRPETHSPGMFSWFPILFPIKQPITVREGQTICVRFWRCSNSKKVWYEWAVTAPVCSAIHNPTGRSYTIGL
Sequence of PRMT5 (Q9BQA1 whole entry partner, species assumed): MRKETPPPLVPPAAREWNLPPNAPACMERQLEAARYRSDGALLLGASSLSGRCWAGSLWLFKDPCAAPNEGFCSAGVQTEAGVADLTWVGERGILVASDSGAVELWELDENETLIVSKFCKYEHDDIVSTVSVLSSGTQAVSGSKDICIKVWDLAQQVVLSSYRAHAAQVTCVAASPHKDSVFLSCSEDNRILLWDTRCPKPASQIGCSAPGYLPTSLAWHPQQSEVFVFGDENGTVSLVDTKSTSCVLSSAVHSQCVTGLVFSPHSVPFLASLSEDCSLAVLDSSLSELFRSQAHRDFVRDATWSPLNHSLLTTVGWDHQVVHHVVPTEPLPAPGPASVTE

On to `N=C(NCCCSC[C@H]1O[C@@H](n2cnc3c(NCC#Cc4ccc(O)cc4)ncnc32)C(O)[C@H]1O)Nc1cccc(Br)c1` (stereo in doubt) [YD1-250], for which the IC50 (commonly the point on the concentration scale where inhibition reaches its midpoint) was determined as 44 nM against PRMT6 [1]; 203 nM in the experiment on PRMT4 [3]; 2640 nM with PRMT7; 7.6 nM on PRMT1 [4]; 38 nM against PRMT8 [5]; 136 nM on PRMT5. Also, half-maximal inhibition in the experiment on PRMT3 [6] (IC50) required 1640 nM. Moreover, the “PRMT1 inhibition” value on PRMT1 [2] is “PRMT1 inhibitors”.

Regarding `Nc1ncnc2c1ncn2[C@@H]1O[C@H](CSCCNC(=O)NCc2ccc(F)cc2)[C@@H](O)[C@H]1O` [Compound 7d, 1-(2-((((2S,3S,4R,5R)-5-(6-amino-9H-purin-9-yl)-3,4-dihydroxytetrahydrofuran-2-yl)methyl)thio)ethyl)-3-(4-fluorobenzyl)urea], the inhibition (usually the change of the read-out against control, counted positive when it falls) at 10 µM was 6% on PRMT1 [2]; 25% on PRMT6 [7]; 62% against PRMT3 [8]; 8% on PRMT8 [10]; 95% at PRMT4 [11]. The “PRMT6 inhibition” value on PRMT6 [7] was “inactive to PRMT6”. In addition, on PRMT3 [8], the “fold reduction of PRMT3 inhibition vs YD1113” value was “over 10 fold”. The figures for the IC50 in the experiment on PRMT3 [9] and in the experiment with PRMT4 [12] were 5.9 ± 1.4 µM and 270 ± 60 nM, respectively.

Turning to `Nc1ncnc2c1ncn2[C@@H]1O[C@H](CSCCNC(=O)Nc2ccccc2)[C@@H](O)[C@H]1O` [Compound 7f, 1-(2-((((2S,3S,4R,5R)-5-(6-amino-9H-purin-9-yl)-3,4-dihydroxytetrahydrofuran-2-yl)methyl)thio)ethyl)-3-phenylurea], the inhibition at 10 µM came out at 9% on PRMT1 [2]; 28% at PRMT6 [7]; 86% at PRMT3 [8]; 12% at PRMT8 [10]; 84% on PRMT4 [11]. For the same molecule, the “PRMT6 inhibition” value on PRMT6 [7] is “inactive to PRMT6”. For the same molecule, on PRMT3 [8], the “fold reduction of PRMT3 inhibition vs YD1113” value was determined as 4 fold. In the experiment with PRMT3 [9], the IC50 came out at 1.9 ± 0.12 µM.

On to `Nc1ncnc2c1ncn2[C@@H]1O[C@H](CSCCNC(=O)NCc2ccccc2Br)[C@@H](O)[C@H]1O` [Compound 7h], for which the inhibition at 10 µM on PRMT1 [2] was 12%; at PRMT6 [7], -11%; on PRMT3 [8], 25%; on PRMT8 [10] it was -13%; on PRMT4 [11], 96%. Besides, the IC50 with PRMT4 [12] amounted to 21 ± 2.8 nM.

Take `Nc1ncnc2c1ncn2[C@@H]1O[C@H](CSCCNC(=O)Nc2ccc(F)cc2)[C@@H](O)[C@H]1O` [Compound 7j, 1-(2-((((2S,3S,4R,5R)-5-(6-amino-9H-purin-9-yl)-3,4-dihydroxytetrahydrofuran-2-yl)methyl)thio)ethyl)-3-(4-fluorophenyl)urea]: the inhibition at 10 µM against PRMT1 [2] was determined as 17%; on PRMT6 [7] it was 17%; against PRMT3 [8], 78%; at PRMT8 [10], 1%; on PRMT4 [11], 88%. Further, on PRMT6 [7], the “PRMT6 inhibition” value was “inactive to PRMT6”. For the same molecule, on PRMT3 [8], the “fold reduction of PRMT3 inhibition vs YD1113” value came out at 4 fold. For the same molecule, the IC50 in the experiment on PRMT3 [9] amounted to 2 ± 0.23 µM.

As for `Nc1ncnc2c1ncn2[C@@H]1O[C@H](CSCCNC(=O)Nc2ccc(Cl)cc2)[C@@H](O)[C@H]1O` [Compound 7k, 1-(2-((((2S,3S,4R,5R)-5-(6-amino-9H-purin-9-yl)-3,4-dihydroxytetrahydrofuran-2-yl)methyl)thio)ethyl)-3-(4-chlorophenyl)urea], the inhibition at 10 µM at PRMT1 [2] was 7%; on PRMT6 [7], 2%; against PRMT3 [8], 30%; on PRMT8 [10], -1%; at PRMT4 [11], 67%. For the same molecule, the “fold reduction of PRMT3 inhibition vs 1i” value at PRMT3 [8] (vs 1i) worked out at 10 fold. The IC50 in the experiment on PRMT3 [9] was 22 ± 2.9 µM.

In the case of `Nc1ncnc2c1ncn2[C@@H]1O[C@H](CSCCNC(=O)Nc2cccc3ccccc23)[C@@H](O)[C@H]1O` [Compound 7l, 1-(2-((((2S,3S,4R,5R)-5-(6-amino-9H-purin-9-yl)-3,4-dihydroxytetrahydrofuran-2-yl)methyl)thio)ethyl)-3-(naphthalen-1-yl)urea], the inhibition at 10 µM was found to be 13% against PRMT1 [2]; 2% at PRMT6 [7]; 1% at PRMT3 [8]; 5% at PRMT8 [10]; 88% on PRMT4 [11]. For the same molecule, the “fold reduction of PRMT3 inhibition vs 1h” value on PRMT3 [8] (vs phenyl (1h)) is “over 40 fold”. The IC50 is 81 ± 17 µM in the experiment with PRMT3 [9] and 470 ± 120 nM with PRMT4 [12].

Regarding `Nc1ncnc2c1ncn2[C@@H]1O[C@H](CSCCCNC(=O)NCc2ccccc2)[C@@H](O)[C@H]1O` [Compound 7p, 1-(3-((((2S,3S,4R,5R)-5-(6-amino-9H-purin-9-yl)-3,4-dihydroxytetrahydrofuran-2-yl)methyl)thio)propyl)-3-benzylurea], the inhibition at 10 µM at PRMT1 [2] was determined as 7%; at PRMT6 [7], 67%; at PRMT3 [8], 13%; at PRMT8 [10], 12%; on PRMT4 [11], 76%. Besides, the inhibition at 70 µM at PRMT3 [8] (70 μM) was determined as 50%. Moreover, the IC50 with PRMT3 [9] was 70 ± 11 µM; in the experiment with PRMT4 [12] it was 3600 ± 420 nM.

With `Nc1ncnc2c1ncn2[C@@H]1O[C@H](CSCCNCc2cccc(-c3ccoc3)c2)[C@@H](O)[C@H]1O` [Compound 10d], the inhibition at 10 µM against PRMT1 [2] was 14%; at PRMT6 [7], 46%; against PRMT3 [8] it was 1%; on PRMT8 [10], 44%; on PRMT4 [11], 100%. In the experiment with PRMT4 [12], the IC50 is 1200 ± 180 nM.

Turning to `Nc1ncnc2c1ncn2[C@@H]1O[C@H](CSCCNCc2cccc(-c3cncnc3)c2)[C@@H](O)[C@H]1O` [Compound 10g], the inhibition at 10 µM at PRMT1 [2] is 5%; on PRMT6 [7], 31%; against PRMT3 [8], 13%; on PRMT8 [10], 36%; at PRMT4 [11], 98%. Further, in the experiment with PRMT4 [12], the IC50 stood at 9300 ± 1100 nM.

As to `Nc1ncnc2c1ncn2[C@@H]1O[C@H](CSCCCNCc2cccc(-c3cncnc3)c2)[C@@H](O)[C@H]1O` [Compound 10s], the inhibition at 10 µM against PRMT1 [2] came to 28%; at PRMT6 [7] it was 65%; at PRMT3 [8], 24%; on PRMT8 [10] it was 39%; at PRMT4 [11], 97%. For the same molecule, the IC50 with PRMT4 [12] is 49000 ± 5700 nM.

Values taken from patent publication US20260306527A1, “PRMT INHIBITOR COMPOUNDS AND THE USES THEREOF” (Purdue Research Foundation, priority 2023, published 2026).
